{
  "source": "patent US8410068B2",
  "about": "“Compounds for the treatment or alleviation of edema, and methods for their use” (Index Pharmaceuticals AB, priority 2007, dated 2013)",
  "key": {"[1]": {"system": "tetradecanoylphorbol 13-acetate (TPA) induced ear edema", "experiment": "TPA-induced ear edema model", "assay_type": "in vivo, mice", "protocol": "A stock solution of TPA was prepared by dissolving TPA in DMSO, 1 mg/mL, and was stored frozen at −80° C. For study B-E, a working solution was prepared with 200 μL of the TPA stock solution added to 800 μL acetone. The working solution was used the same day as it was prepared.\nEach cage was identified by a cage card marked with study number, group number, ethical approval number, sex and animal ear numbers. The animals were individually marked on the tail with transverse lines corresponding to the animals' number, using a permanent-ink felt pen. An illustration of the protocols used for the different treatments is outlined in Table 4. The compounds were tested according to the same protocols with necessary modifications.\nIntraperitoneal (i.p.) injections were performed by giving 100 μL in the lower right quadrant of the abdomen. Subcutaneous injections were done with 100 μL in the neck region. Intranasal administration was performed by letting the mouse inhale droplets into the nostrils, total volume 40 μL. All administrations were done on non-anesthetized mice.\nBoth outer ears of a non-anesthetized mouse were washed with mild soap (Palmolive, Sweden) using a soft tooth brush, the ears were dried with tissue and cleaned with tissue soaked with acetone. After allowing the acetone to evaporate, TPA or AA was applied on both sides, 10 μL, on each side of the ear with care to cover the whole ear. The mouse was held for 20 seconds to allow the solvent to evaporate.\nIntraperitoneal injections were given in the lower right quadrant of the abdomen with the animal held in a supine position. Subcutaneous (s.c.) injections were given in the neck of the animals. Intranasal administrations were given to mice held in a slightly reclining position. With an adjustable micro-pipette 40 μL of the test substance was given in droplets on the nostrils and the mouse was allowed to aspirate at free will.\nThe ears of non-anesthetized mice were measured at different time points for up to 96 hours after the TPA was administered, or up to 24 hours for the AA model. The first measurements were done before the edema was induced. The thickness was recorded with a spring loaded dial micrometer (Limit, Thickness Gauge, accuracy 0.01 mm, contact area Ø6 mm, Luna AB, Allingsås, Sweden) in triplicates at all time points per ear.\nThe average thickness for both ears on a mouse was calculated and compared to the average thickness of the ears at the starting time point. The value obtained at the start of the experiment was set as 100%. The peak values and area under the curve (AUC) values for the treatment groups were calculated and compared to the inflamed control group, treated with PBS (set as 100%), and expressed as a percentage change (Δ% AUC).\nArea under the curve (AUC) with base line set as 100 was calculated using GraphPad Prism version 4.03 for Windows (GraphPad Software, San Diego Calif. USA, www.graphpad.com).\nAUC reduction and P-values were calculated against the positive control (TPA or AA+PBS)."}, "[2]": {"system": "thioglycolate induced pleurisy", "experiment": "Thioglycolate induced pleurisy", "assay_type": "in vivo, C57/Bl6 mice", "settings": "50 μg/mouse i.p. 20 min before induction of pleurisy", "protocol": "Mice were anesthetized by an intraperitoneal injection of 0.15-0.20 ml of a mixture of ketamine (Ketalar® Parke-Davis; 25 mg/ml) and xylazine (Narcoxyl Vet.® Veterinaria AG; 5 mg/ml).\nThe left jugular vein was cannulated with polyethylene tubing (PE10) for intravenous administration (i.v.). A skin incision was made on the right side of the chest. Following dissection of the underlying muscle, pleurisy (inflammation of the lung sack) was induced by a single intrapleural injection of 100 μl of thioglycolate (Sigma). Sterile PBS was used as negative control.\nFITC-conjugated dextran in PBS (100 μl, 30 mg/ml) was injected i.v. After 4 h, the animals were euthanized with an overdose of anaesthesia, the chest was carefully opened and the exudate was removed by aspiration and the volume noted. The thorax was then rinsed with 1 ml of ice-cold 3 mM EDTA in PBS. Exudate which was contaminated with red blood cells was discarded.\nThe exudate and rinsed material was centrifuged at 1500 g for 5 min and the supernatant was used for measurement of fluorescence intensity in a fluorometer (Fluoroskan Acsent, LabSystems) and clearance volume of FITC-dextran was calculated. […]\nCells from the exudate were stained with neutrophil and macrophage specific antibodies and were analyzed by flow cytometry (FACSort and CellQuest software, BD). […]"}},
  "note": "“And” between values parts separate entries of the source, which are not always exact repeats. Identical values can stand only once.",
  "data": [
    {"substance": "G*G*A*ACAGTTCGTCCAT*G*G*C (phosphorothioate linkages, as printed in the source, key not given here) [IDX0150, oligonucleotide used as control; * = phosphorothioate modification]", "values": [
      {"measurement": "average inflammatory peak value of swelling", "setting": "[1]; FIG. 2, 100 μg IDX0150, combined from 10 experiments, vs PBS vehicle with TPA, P<0.001", "result": "very high statistical significant reduction in peak values"},
      {"measurement": "Reduction of AUC compared to PBS", "setting": "[1]; Study A / FIG. 1, 100 μg, one single injection (i.p. in Study A, s.c. in FIG. 1) 20 min before TPA, day 0", "result": "−38.9", "unit": "%"},
      {"measurement": "reduction of AUC", "setting": "[1]; Study B, 100 μg s.c. 4 days before induction of edema", "result": "no reduction of AUC"},
      {"measurement": "reduction of AUC", "setting": "[1]; Study C (repeat of B), 100 μg s.c. 4 days before induction of edema", "result": "−22", "unit": "%"},
      {"measurement": "reduction of AUC", "setting": "[1]; Study D, 100 μg s.c. 2 days before induction of edema", "result": "−16.5", "unit": "%"},
      {"measurement": "reduction of AUC", "setting": "[1]; Study E, 100 μg s.c. same day, approx. 20 min before induction", "result": "−27.3", "unit": "%"},
      {"measurement": "reduction of AUC", "setting": "[1]; Study F, equal doses 50 μg s.c. same day as swelling induced", "result": "−31.1", "unit": "%"},
      {"measurement": "reduction of AUC", "setting": "[1]; Study G, therapeutic, 100 μg s.c. 2 hours after induction of edema", "result": "−42.3", "unit": "%"},
      {"measurement": "reduction of AUC", "setting": "[1]; Study H, 100 μg intranasal 4 days before swelling induced", "result": "−25.7", "unit": "%"},
      {"measurement": "reduction of AUC", "setting": "[1]; Study I, 100 μg intranasal day 0, same day as edema induced", "result": "−28.4", "unit": "%"},
      {"measurement": "AUC reduced", "setting": "[1]; Study J, therapeutic, 100 μg intranasal 2 hours after induction", "result": "−28.8", "unit": "%"},
      {"measurement": "reduction of AUC", "setting": "[1]; Study K dose response, 0.1 μg s.c. day 0", "result": "−13.9", "unit": "%"},
      {"measurement": "reduction of AUC", "setting": "[1]; Study K dose response, 1 μg s.c. day 0", "result": "−16.3", "unit": "%"},
      {"measurement": "reduction of AUC", "setting": "[1]; Study K dose response, 10 μg s.c. day 0", "result": "−27.9", "unit": "%"},
      {"measurement": "reduction of AUC", "setting": "[1]; Study K dose response, 100 μg s.c. day 0", "result": "−45", "unit": "%"},
      {"measurement": "reduction of AUC", "setting": "[1]; Study O, 10 μg given s.c. on day 0 (Table 4: i.n.)", "result": "−25.5", "unit": "%"},
      {"measurement": "reduction of number of PMN in pleural exudates", "setting": "[2]; compared to inflamed mice (PBS)", "result": "42% and 40.9%"},
      {"measurement": "reduction in clearance volume of pleural edema (vascular permeability)", "setting": "[2]; compared to thioglycolate treatment", "result": "68.2% and 69.2%"}
    ]}
  ]
}
